Literature values in US8003118B2 (priority 2005, dated 2011).

In the case of `CO[C@H]1/C=C/O[C@@]2(C)Oc3c(C)c(O)c4c(O)c(c5c(nc6cc(C)ccn65)c4c3C2=O)NC(=O)/C(C)=C\C=C\[C@H](C)[C@H](O)[C@@H](C)[C@@H](O)[C@@H](C)[C@H](OC(C)=O)[C@@H]1C` [rifaximin, (2S,16Z,18E,20S,21S,22R,23R,24R,25S,26S,27S,28E)-5,6,21,23,25-pentahydroxy-27-methoxy-2,4,11,16,20,22,24,26-octamethyl-2,7-(epoxypentadeca-[1,11,13]trienimino)benzofuro[4,5-e]pyrido[1,2-α]-benzimidazole-1,15(2H)-dione,25-acetate], the “solubility in water” value is listed as “practically insoluble”.
